Test results: PubChem BioAssay (NCI)
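96-well plates; 48 h exposure; 5 concentrations. Endpoints by linear interpolation between flanking doses. Not reached: highest tested concentration assigned. TGI marks complete inhibition of growth.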

Columns and labels:
Experiment in all cases: NCI-60 cell line screen, 48 h
[1] = test system: HCC-2998 colon
[2] = test system: SK-OV-3 ovarian
[3] = test system: M19-MEL melanoma
[4] = test system: SNB-19 CNS
[5] = test system: HCT-116 colon
[6] = test system: UACC-62 melanoma
[7] = test system: SF-268 CNS
[8] = test system: KM12 colon
[9] = test system: DMS 114 small cell lung
[10] = test system: OVCAR-4 ovarian
[11] = test system: OVCAR-5 ovarian
[12] = test system: OVCAR-3 ovarian
[13] = test system: HT29 colon
[14] = test system: HOP-92 NSCLC
[15] = test system: TK-10 renal
[16] = test system: SK-MEL-5 melanoma
[17] = test system: CAKI-1 renal
[18] = test system: HCT-15 colon
[19] = test system: U251 CNS
[20] = test system: COLO 205 colon
[21] = test system: SF-295 CNS
[22] = test system: EKVX NSCLC
[23] = test system: NCI-H522 lung
[24] = test system: SN12C renal
[25] = test system: ACHN renal
[26] = test system: HOP-62 NSCLC
[27] = test system: KM20L2 colon
[28] = test system: OVCAR-8 ovarian
[29] = test system: SNB-75 CNS
[30] = test system: CCRF-CEM leukemia
[31] = test system: HOP-18 NSCLC
[32] = test system: SK-MEL-2 melanoma
[33] = test system: MOLT-4 leukemia
[34] = test system: A549 NSCLC
[35] = test system: SK-MEL-28 melanoma
[36] = test system: RPMI-8226 leukemia
[37] = test system: RXF 393 renal
[38] = test system: LOX IMVI melanoma
[39] = test system: M14 melanoma
[40] = test system: SF-539 CNS
[41] = test system: MALME-3M melanoma
[42] = test system: UACC-257 melanoma
[43] = test system: XF 498 CNS
[44] = test system: LXFL 529 NSCLC
[45] = test system: NCI-H226 lung
[46] = test system: SW-620 colon
[47] = test system: NCI-H460 lung
[48] = test system: A498 renal
[49] = test system: UO-31 renal
[50] = test system: K-562 leukemia
[51] = test system: 786-0 renal
[52] = test system: IGROV1 ovarian
[53] = test system: DLD-1 colon
[54] = test system: SR leukemia
[55] = test system: HL-60(TB) leukemia
[56] = test system: NCI-H23 lung
[57] = test system: SNB-78 CNS
[58] = test system: DMS 273 small cell lung
[59] = test system: NCI/ADR-RES ovarian
[60] = test system: RXF-631 renal
[61] = test system: DU-145 prostate
[62] = test system: MDA-N
[63] = test system: MDA-MB-231 breast
[64] = test system: HS 578T breast
[65] = test system: PC-3 prostate
[66] = test system: MDA-MB-435
[67] = test system: BT-549 breast
[68] = test system: T-47D breast
[69] = test system: MCF7 breast

For `COc1ccc(-c2c3ccccc3c(-c3ccc(OC)cc3)c3ccccc23)cc1`, the TGI [1] was over 100 µM, the TGI [2] was over 100000 nM and the TGI [3] was over 100000 nM. It also gave a TGI [4] of over 100 µM, a TGI [5] of over 100000 nM and a TGI [6] of over 100000 nM. The TGI [7] was over 100000 nM, the TGI [8] was over 100000 nM and the TGI [9] was over 100000 nM. It also gave a TGI [10] of over 100000 nM, a TGI [11] of over 100000 nM and a TGI [12] of over 100 µM. It also gave a TGI [13] of over 100 µM, a TGI [14] of over 100000 nM and a TGI [15] of over 100 µM. The TGI [16] was over 100000 nM, the TGI [17] was over 100000 nM and the TGI [18] was over 100 µM. It also gave a TGI [19] of over 100000 nM, a TGI [20] of over 100 µM and a TGI [21] of over 100 µM. The TGI [22] was over 100 µM, the TGI [23] was over 100000 nM and the TGI [24] was over 100000 nM. For the same compound, the TGI [25] was over 100000 nM, the TGI [26] was over 100 µM and the TGI [27] was over 100 µM. It also gave a TGI [28] of over 100000 nM, a TGI [29] of 95.7 µM and a TGI [30] of over 100 µM. It also gave a TGI [31] of over 100 µM, a TGI [32] of over 100000 nM and a TGI [33] of over 100 µM. It also gave a TGI [34] of over 100000 nM, a TGI [35] of over 100 µM and a TGI [36] of over 100 µM. The TGI [37] was over 100000 nM, the TGI [38] was over 100000 nM and the TGI [39] was over 100000 nM. For the same compound, the TGI [40] was over 100 µM, the TGI [41] was over 100000 nM and the TGI [42] was over 100 µM. For the same compound, the TGI [43] was over 100 µM, the TGI [44] was over 100000 nM and the TGI [45] was over 100000 nM. The TGI [46] was over 100000 nM, the TGI [47] was over 100000 nM and the TGI [48] was over 100000 nM. The TGI [49] was over 100 µM, the TGI [50] was over 100 µM and the TGI [51] was over 100000 nM. The TGI [52] was over 100000 nM, the TGI [53] was over 100 µM and the TGI [54] was over 100000 nM. The TGI [55] was over 100 µM, the TGI [56] was over 100000 nM and the TGI [57] was over 100 µM. It also gave a TGI [58] of over 100000 nM.
Work on `CCN(CCCl)CCCCNc1c2ccccc2nc2ccc(OC)cc12` yielded a TGI [2] of 2770 nM, a TGI [3] of 1680 nM and a TGI [4] of 3.34 µM. The TGI [5] was 1290 nM, the TGI [6] was 1590 nM and the TGI [7] was 1360 nM. The TGI [8] was 1820 nM, the TGI [9] was 1830 nM and the TGI [10] was 2790 nM. The TGI [11] was 2960 nM, the TGI [12] was 3.78 µM and the TGI [13] was 3.31 µM. The TGI [14] was 886 nM, the TGI [15] was 5.22 µM and the TGI [16] was 1980 nM. It also gave a TGI [59] of over 100 µM, a TGI [17] of 1890 nM and a TGI [60] of 4.51 µM. It also gave a TGI [18] of 5.43 µM, a TGI [19] of 1720 nM and a TGI [61] of 1740 nM. The TGI [20] was 3.63 µM, the TGI [21] was 3.64 µM and the TGI [22] was 3.15 µM. For the same compound, the TGI [62] was 2960 nM, the TGI [23] was 1430 nM and the TGI [24] was 1610 nM. It also gave a TGI [25] of 1720 nM, a TGI [26] of 3.71 µM and a TGI [27] of 3.35 µM. The TGI [28] was 1940 nM, the TGI [29] was 2.14 µM and the TGI [63] was 3.99 µM. For the same compound, the TGI [32] was 2480 nM, the TGI [34] was 2270 nM and the TGI [35] was 8.36 µM. For the same compound, the TGI [36] was 4.08 µM, the TGI [37] was 1700 nM and the TGI [38] was 1520 nM. For the same compound, the TGI [64] was over 100 µM, the TGI [39] was 2920 nM and the TGI [40] was 4.69 µM. For the same compound, the TGI [41] was 2890 nM, the TGI [42] was 10.5 µM and the TGI [65] was 1140 nM. For the same compound, the TGI [44] was 1760 nM, the TGI [45] was 1080 nM and the TGI [46] was 1630 nM. It also gave a TGI [47] of 1390 nM, a TGI [66] of 2120 nM and a TGI [67] of 7.41 µM. For the same compound, the TGI [48] was 875 nM, the TGI [49] was 4.51 µM and the TGI [51] was 1560 nM. It also gave a TGI [68] of 1500 nM, a TGI [52] of 2050 nM and a TGI [54] of 1550 nM. For the same compound, the TGI [56] was 1960 nM, the TGI [57] was 4.07 µM and the TGI [69] was 935 nM. The TGI [58] was 1440 nM.
